Data taken from paper PMC3102446, “Different Effects of Mg^2+ and Zn^2+ on the Two Sites for Alkylammonium Compounds in Pseudomonas aeruginosa Phosphorylcholine Phosphatase” (Enzyme Research, 2011).

Biological target: T1, Pseudomonas aeruginosa phosphorylcholine phosphatase (PchP) (Pseudomonas aeruginosa, UniProt Q9HTR2)
T1 construct: His-tag fusion produced in E. coli BL21 CodonPlus; purified with EDTA to remove residual metal
Assay: biochemical
Details: not given
Source text: inhibition of p-NPP hydrolysis, DYNAFIT global fit on Pseudomonas aeruginosa phosphorylcholine phosphatase (PchP)

T1 sequence (Q9HTR2 23-349): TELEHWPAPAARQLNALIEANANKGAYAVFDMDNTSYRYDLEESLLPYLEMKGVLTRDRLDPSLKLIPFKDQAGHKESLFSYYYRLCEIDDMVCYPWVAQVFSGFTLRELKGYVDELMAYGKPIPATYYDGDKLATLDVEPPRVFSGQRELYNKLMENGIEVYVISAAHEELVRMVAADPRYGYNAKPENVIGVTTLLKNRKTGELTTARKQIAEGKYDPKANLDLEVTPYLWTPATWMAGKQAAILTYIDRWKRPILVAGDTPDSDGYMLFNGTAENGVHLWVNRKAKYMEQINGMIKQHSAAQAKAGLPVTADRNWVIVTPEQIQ

First: C[N+](C)(C)CC(=O)[O-] [Betaine]
Second: C[N+](C)(C)CCO [Choline]
The Ki of the first is 14-fold higher: 1440 ± 90 µM for the first, 100 ± 10 µM for the second.

First: COc1cc2c3cc1Oc1cc(ccc1O)C[C@@H]1c4c(cc(OC)c(O)c4Oc4ccc(cc4)C[C@@H]3N(C)CC2)CC[N+]1(C)C [Tubocurarine]
Second: CN(C)C(=O)Oc1cccc([N+](C)(C)C)c1 [Neostigmine]
The Ki of the first is 4.4-fold higher: 2510 ± 210 µM for the first, 570 ± 50 µM for the second.

First: CC(C)(N)CO [2-amino-2-methyl-1-propanol]
Second: C[N+](C)(C)CCCl [Chlorocholine]
The Ki of the first is 1.8-fold higher: 210 ± 10 µM for the first, 120 ± 10 µM for the second. The second binds more tightly here.

Going from `C[N+](C)(C)C` [Tetramethylammonium] to `C[N+](C)(C)CCCCCC[N+](C)(C)C` [Hexamethonium], the Ki rises from 35 ± 8 µM to 80 ± 10 µM (2.3-fold). The first binds more tightly here.

`C[N+](C)(C)CCCCCCCCCC[N+](C)(C)C` [Decamethonium] and `CN(C)C` [Trimethylamine] are within error of each other in Ki: 80 ± 10 µM for the first, 60 ± 10 µM for the second.

Work on `N[C@H](CO)Cc1c[nH]cn1` [L-histidinol] yielded a Ki of 310 ± 80 µM.

Test system: C[N+](C)(C)CCOP(=O)([O-])O
Assay: purified protein
Details: 0.25-2 mM Mg2+, 100 mM sodium acetate pH 5.0, 37 °C, kcat1 of productive EAS complex
Source text: Pi release assay, DYNAFIT global fit on Pseudomonas aeruginosa phosphorylcholine phosphatase (PchP)

“Pseudomonas aeruginosa phosphorylcholine phosphatase (PchP) (Pseudomonas aeruginosa PAO1)” showed a Km of 0.021 ± 0.008 mM.

“Pseudomonas aeruginosa phosphorylcholine phosphatase (PchP) (Pseudomonas aeruginosa PAO1)” gave a kcat of 121 ± 8 s⁻¹.
